Assay results published in EPA's ToxValDB 9.5.
Converted amounts (≈) assume the structure as drawn.

Assays:
[1] = tested on: Ceriodaphnia dubia; settings: chronic/long-term; duration: 7 days; reproduction
[2] = tested on: Rattus norvegicus; settings: for LD50: acute, oral, mortality
[3] = tested on: Apis mellifera; settings: acute, mortality
[4] = tested on: Anas platyrhynchos; settings: oral, mortality
[5] = tested on: Canidae; settings: chronic; duration: 1 years; oral; Dog Other; clinical signs
[6] = tested on: Lepomis macrochirus; settings: acute; duration: 96 hours; mortality
[7] = tested on: Leuciscus idus; settings: acute; duration: 96 hours; mortality
[8] = tested on: Mus musculus; settings: acute; oral; mortality
[9] = tested on: Macaca mulatta; settings: acute; oral; neurology
[10] = acute; oral; unspecified; mortality
[11] = tested on: Tagia sp.; settings: acute; duration: 14 days; mortality
[12] = tested on: Colinus virginianus; settings: acute; oral; diet; mortality
[13] = tested on: Oncorhynchus mykiss

CNC(=O)Oc1cccc2c1OC(C)(C)C2 [Carbofuran]
NOEC [1]: 0.00016 mg/L
LD50 [2]: < 5.6 mg/kg
NOAEL ([2]; reproduction developmental, clinical signs): 0.1 mg/kg-day
LD50 ([3]; dermal): 0.0357 µg/piece
LD50 ([4]; acute, unspecified, M): 0.71 mg/kg
LC50 ([4]; short-term, feed): 1.6 mg/kg-day
NOAEL [5]: 0.1 mg/kg-day
LC50 [6]: 0.18 µg/mL (≈ 0.814 µM)

O=C(O)CCCc1c[nH]c2ccccc12 [Indole-3-butyric acid]
LC50 [7]: 210 µg/mL (≈ 1030 µM)
LD50 [8]: 1920 mg/kg-day

C/C(=C/C=C/[C@@H](C)C(=O)O)[C@H]1CN[C@H](C(=O)O)[C@H]1CC(=O)O [L-Domoic acid]
LOAEL [9]: 5 mg/kg-day

[S] [Sulfur]
LD50 [10]: > 5000 mg/kg
LD50 [2]: > 1760 mg/kg
NOAEL ([2]; short-term, duration: 28 days, no effects): > 1000 mg/kg-day
NOAEL ([2]; subchronic, duration: 90 days, no effects): 1000 mg/kg-day
LD50 ([3]; oral, unspecified): > 100 µg/piece
LC50 [11]: > 1580 mg/kg
LC50 [12]: > 1330 mg/kg-day
LC50 ([13]; acute, duration: 96 hours, mortality): > 0.063 µg/mL
NOEC ([13]; chronic/long-term, duration: 28 days, growth): > 0.063 mg/L
